Here are results for 11 compounds from US20260014146A1, “CDK2 INHIBITORS AND METHODS OF USING THE SAME” (Cedilla Therapeutics, Inc., priority 2022, published 2026).

Assay [1] deals with Kuramochi cells labeled with mApple-H2B. The assay can be described thus: IncuCyte cell proliferation assay. The conditions noted are these: Kuramochi RB-WT, cell count 0 to 72 hours; method calls it GI50. The class given is cell-based. The method, then:
IncuCyte® assay was used to measure the effect of disclosed compounds on cell proliferation. Fluorescent microscopy images of cells were taken immediately after compound treatment and 72 hours later. Image analysis software was used to obtain cell counts as a function of compound concentration. Kuramochi cells labeled with mApple-H2B were seeded on 384-well assay-ready plates. Plates were placed in an IncuCyte® (Sartorius) and scanned at 0 and 72 hours. IncuCyte® software was used to count the number of fluorescent nuclei in each well. The fold change in cell count from 0 to 72 hours in wells treated with increasing compounds concentrations (10 pts, 1/2 log dilution, 20 μM top concentration) was normalized to DMSO control wells. The normalized cell counts were fit with dose response curves and a GI50 was calculated.

Assay [2] concerns Kuramochi cells. The assay can be described thus: BrdU cell proliferation assay. The settings on record: 96 h, developed on day 4, read-out: BrdU - KURAMOCHI.1: IC50. In kind it is cell-based. The protocol:
A BrdU assay was used as a measure of proliferation based on the DNA replication process of proliferating cells. BrdU, a pyrimidine analog, is added to the cell culture and incorporated into the DNA of proliferating cells. The presence of the BrdU analog was then measured through a colorimetric ELISA. After fixation and permeabilization of cells, peroxidase-conjugated antibody recognizing BrdU is added and allowed to incubate, followed by thorough washing to remove unbound antibody. In order to quantify the amount of bound antibody, peroxidase substrate is added and produces a color that can be measured at 450 nm.
On day −1, Kuramochi cells (Sekisui XenoTech JCRB0098) were seeded at 2,000 cells/well in columns 2-12 of a 96 well plate (Corning, CLS3596) in 150 uL media and allowed to adhere overnight at 37 degree with 5% CO2. In order to assess specificity of the compounds, Kuramochi RB^KO cells were also plated and treated, as RB^KO cells were not expected to show a proliferative response to CCNE/CDK specific inhibitors.
On day 0, the source plate was prepared by adding 10 mM compounds and performing 3-fold serial dilutions for a 4-point dose response of each compound. Using a multichannel pipette, 2 μL of the contents of the source plate were stamped into an intermediate plate with 500 μL of RPMI 1640 Media, GlutaMAX Supplement (Life Technologies. 61870127) in each well of a Nunc 96 DeepWell™ plate, non-treated 96 DeepWell plate, 2 mL/well, sterile, natural. 60/cs (Sigma Z717274) and mixed thoroughly. 50 uL from row A of this intermediate plate were added to rows A-H of one plate of previously seeded Kuramochi cells, and each subsequent row of the intermediate plate was added to a full plate of cells.
On day 4, the plates were developed using the BrdU ELISA Cell Proliferation Assay according to manufacturer's instructions (Roche, 11647229001). Briefly, BrdU was diluted 1:100 in Gibco®. Opti-MEM® and 20 μL/well was added, shaken for 10 minutes at 350 rpm, and then returned to the incubator for 1 hour. Following incubation, the medium was discarded, and the cells were fixed by adding 200 μL of Fix/Denature solution. The anti-BrdU peroxidase antibody was diluted 1:1000 in OptiMEM, added at 100 μL/well, and incubated while shaking (350 rpm) for one hour. Three washes with PBS were performed to remove any unbound antibody, followed by the addition of 100 μL of substrate solution to each well. […] was then added to halt the reaction, and plates were read out using an Envision spectrophotometer (Perkin Elmer) set to read 450 nm absorbance. Background absorbance values from empty wells were subtracted from all samples and then normalized to DMSO treated wells.

Assay [3] has as its target CDK2/Cyclin E1 (Homo sapiens (Human), UniProt P24941). The assay can be described thus: Caliper LabChip EZ Reader mobility shift assay. The class given is biochemical. The conditions noted are these: 2.5 nM CDK2/Cyclin E1 (14-475), 100 μM ATP, 1.5 μM fluorescent peptide; read-out: Caliper Assay (CDK2/CCNE1): IC50. The protocol: Inhibition of CDK2/Cyclin E1 activity in the presence of compounds of the present disclosure was evaluated using a Caliper LabChip® EZ Reader mobility shift assay. In the assay, activated CDK2/Cyclin E1 catalyzes the phosphorylation of a fluorescently tagged peptide 5-FAM-QSPKKG-CONH2 (PerkinElmer, FL Peptide 18) which induces a difference in capillary electrophoresis mobility. The peptide substrate and product were measured, and the conversion ratio was used to determine the inhibition (as % activity and IC50 values) of CDK2/Cyclin E1. Reactions contained 50 mM HEPES pH 7.5, 10 mM MgCl2, 1 mM EDTA, 2 mM DTT, 0.01% Brij35, 0.5 mg/mL BSA, 0.1% DMSO, 2.5 nM CDK2/Cyclin E1 (14-475), 100 μM ATP, and 1.5 μM fluorescent peptide substrate.
Dose titrations of inhibitors in 100% DMSO were combined with 3.25 nM CDK2/Cyclin E1 (14-475) and 130 μM of ATP in reaction buffer. The mixtures were incubated for 30 minutes before the addition of fluorescent peptide substrate to initiate the kinase reaction. The final conditions were 2.5 nM CDK2/Cyclin E1 (14-475), 100 μM ATP, and 1.5 μM fluorescent peptide. The reactions were stopped after 100 minutes with the addition of EDTA (6 mM final EDTA concentration). The stopped reactions were analyzed on a Caliper LabChip® EZ Reader II. The conversion ratios were normalized to yield % activity, plotted against compound concentration, and fit to a four-parameter equation to determine the IC50 for each compound.

`C[C@@H](OCC1CCCCC1)[C@H](NC(=O)[C@@H]1CN(c2cccc3cn[nH]c23)CC12CN(C(=O)[C@H]1CC1(C)C)C2)C(=O)N1CCCCC1` [Compound I-11, (S)-N-((2S,3R)-3-(cyclohexylmethoxy)-1-oxo-1-(piperidin-1-yl)butan-2-yl)-2-((S)-2,2-dimethylcyclopropanecarbonyl)-6-(1H-indazol-7-yl)-2,6-diazaspiro[3.4]octane-8-carboxamide]: the IC50 in assay [1] and in assay [2] was 0.5 to 5 µM throughout.
In the case of `C[C@@H](OCC1CCCCC1)[C@H](NC(=O)[C@@H]1CN(c2nccc3cn[nH]c23)CC12CN(C(=O)[C@H]1CC1(C)C)C2)C(=O)N1CCCCC1` [Compound I-12, (S)-N-((2S,3R)-3-(cyclohexylmethoxy)-1-oxo-1-(piperidin-1-yl)butan-2-yl)-2-((S)-2,2-dimethylcyclopropane-1-carbonyl)-6-(1H-pyrazolo[3,4-c]pyridin-7-yl)-2,6-diazaspiro[3.4]octane-8-carboxamide 2,2,2-trifluoroacetate], the IC50 in assay [3] and in assay [2] was more than 10 µM in each case.
Turning to `CC(OCC12CCC(CC1)OC2)[C@H](NC(=O)[C@@H]1CN(c2ncnc3ncsc23)CC12CN(C(=O)[C@H]1CC1(C)C)C2)C(=O)N1CC2(CCOCC2)C1` (stereo partly drawn) [Compound I-25, (S)-N-((2S,3R)-3-((2-oxabicyclo[2.2.2]octan-4-yl)methoxy)-1-oxo-1-(7-oxa-2-azaspiro[3.5]nonan-2-yl)butan-2-yl)-2-((S)-2,2-dimethylcyclopropane-1-carbonyl)-6-(thiazolo[4,5-d]pyrimidin-7-yl)-2,6-diazaspiro[3.4]octane-8-carboxamide], the IC50 in assay [3] was 0.1 to 1 µM; in assay [1] it was more than 20 µM.
Turning to `C[C@@H](OCC12CCC(CC1)OC2)[C@H](NC(=O)[C@@H]1CN(c2ncnc3ncsc23)CC12CN(C(=O)[C@H]1CC1(C)C)C2)C(=O)N1CCC(OC(F)(F)F)CC1` [Compound I-29, (S)-N-((2S,3R)-3-((2-oxabicyclo[2.2.2]octan-4-yl)methoxy)-1-oxo-1-(4-(trifluoromethoxy)piperidin-1-yl)butan-2-yl)-2-((S)-2,2-dimethylcyclopropane-1-carbonyl)-6-(thiazolo[4,5-d]pyrimidin-7-yl)-2,6-diazaspiro[3.4]octane-8-carboxamide], the IC50 in assay [3] lay within 0.01 to 0.1 µM; in assay [1], 5 to 20 µM.
In the case of `C[C@@H](OCC12CCC(CC1)OC2)C(NC(=O)[C@@H]1CN(c2ncnc3ncsc23)CC12CN(C(=O)[C@H]1CC1(C)C)C2)C(=O)N1CCC(C(F)(F)F)CC1` (stereo partly drawn) [Compound I-30, (S)-N-((2S,3R)-3-((2-oxabicyclo[2.2.2]octan-4-yl)methoxy)-1-oxo-1-(4-(trifluoromethyl)piperidin-1-yl)butan-2-yl)-2-((S)-2,2-dimethylcyclopropane-1-carbonyl)-6-(thiazolo[4,5-d]pyrimidin-7-yl)-2,6-diazaspiro[3.4]octane-8-carboxamide], the IC50 was 0.01 to 0.1 µM in assay [3] and 0.5 to 5 µM in assay [1].
In the case of `CNC(=O)C(NC(=O)[C@@H]1CN(C(=O)c2cncs2)CC12CN(c1nc(C(F)(F)F)co1)C2)[C@@H](C)OCC12CCC(CC1)OC2` (stereo partly drawn) [Compound I-32, (S)-N-((2S,3R)-3-((2-oxabicyclo[2.2.2]octan-4-yl)methoxy)-1-(methylamino)-1-oxobutan-2-yl)-6-(thiazole-5-carbonyl)-2-(4-(trifluoromethyl)oxazol-2-yl)-2,6-diazaspiro[3.4]octane-8-carboxamide], the results for the IC50 in assay [3] and in assay [1] were more than 10 µM and more than 20 µM, respectively.
In the case of `C[C@@H](OCC12CCC(CC1)OC2)[C@H](NC(=O)[C@@H]1CN(c2cc(F)cc3ncsc23)CC12CN(C(=O)[C@H]1CC1(C)C)C2)C(=O)N1CCC(c2ccncc2)CC1` [Compound I-33, N-((2S,3R)-3-(2-oxabicyclo[2.2.2]octan-4-ylmethoxy)-1-oxo-1-(4-(pyridin-4-yl)piperidin-1-yl)butan-2-yl)-2-((S)-2,2-dimethylcyclopropanecarbonyl)-6-(5-fluorobenzo[d]thiazol-7-yl)-2,6-diazaspiro[3.4]octane-8-carboxamide], the IC50 in assay [3] was not above 0.01 µM; in assay [1], 0.5 to 5 µM.
For `C[C@@H](OCC1(CO)CC=CCC1)C(NC(=O)[C@@H]1CN(c2ncnc3ncsc23)CC12CN(C(=O)[C@H]1CC1(C)C)C2)C(=O)N1CCC(OC(F)(F)F)CC1` (stereo partly drawn) [Compound I-35, (8S)-2-((S)-2,2-dimethylcyclopropane-1-carbonyl)-N-((2S,3R)-3-((1-(hydroxymethyl)cyclohex-3-en-1-yl)methoxy)-1-oxo-1-(4-(trifluoromethoxy)piperidin-1-yl)butan-2-yl)-6-(thiazolo[4,5-d]pyrimidin-7-yl)-2,6-diazaspiro[3.4]octane-8-carboxamide], the IC50 in assay [3] is 0.01 to 0.1 µM; in assay [1], more than 20 µM.
On to `C[C@@H](OCC1(CO)CC=CCC1)[C@H](NC(=O)[C@@H]1CN(c2ncnc3ncsc23)CC12CN(C(=O)[C@H]1CC1(C)C)C2)C(=O)N1CCC(C(F)(F)F)CC1` (stereo partly drawn) [Compound I-36, (8S)-2-((S)-2,2-dimethylcyclopropane-1-carbonyl)-N-((2S,3R)-3-((1-(hydroxymethyl)cyclohex-3-en-1-yl)methoxy)-1-oxo-1-(4-(trifluoromethyl)piperidin-1-yl)butan-2-yl)-6-(thiazolo[4,5-d]pyrimidin-7-yl)-2,6-diazaspiro[3.4]octane-8-carboxamide], for which the results for the IC50 in assay [3] and in assay [1] were 0.01 to 0.1 µM and more than 20 µM, respectively.
For `C[C@@H](OCC1(CO)CC=CCC1)[C@H](NC(=O)[C@@H]1CN(c2ncnc3ncsc23)CC12CN(C(=O)[C@H]1CC1(C)C)C2)C(=O)N1CC2(CCOCC2)C1` (stereo partly drawn) [Compound I-37, (8S)-2-((S)-2,2-dimethylcyclopropane-1-carbonyl)-N-((2S,3R)-3-((1-(hydroxymethyl)cyclohex-3-en-1-yl)methoxy)-1-oxo-1-(7-oxa-2-azaspiro[3.5]nonan-2-yl)butan-2-yl)-6-(thiazolo[4,5-d]pyrimidin-7-yl)-2,6-diazaspiro[3.4]octane-8-carboxamide], in that order: 0.1 to 1 µM and more than 20 µM.
Regarding `COC[C@H]1CCCN(C(=O)[C@@H](NC(=O)[C@H]2CN(c3nc(C(F)(F)F)cs3)CC23CN(C(=O)[C@H]2CC2(C)C)C3)[C@@H](C)OCC23CCC(CC2)OC3)C1` [I-17 2nd, N-((2S,3R)-3-(2-oxabicyclo[2.2.2]octan-4-ylmethoxy)-1-((S)-3-(methoxymethyl)piperidin-1-yl)-1-oxobutan-2-yl)-2-((S)-2,2-dimethylcyclopropanecarbonyl)-6-(4-(trifluoromethyl)thiazol-2-yl)-2,6-diazaspiro[3.4]octane-8-carboxamide], the IC50 in assay [3] was more than 10 µM; in assay [1], more than 20 µM.
